These are literature values, as cited in US20260324644A1, “HERBICIDE COMPOSITION AND A METHOD FOR BURNDOWN APPLICATION” (UPL Mauritius Limited, priority 2022, published 2026).

The test system of data set [1] is glutamine synthetase (GS). Particulars: role: inhibitor; GS of bacteria and plants; cited from earlier work.
Data set [2] has as its system plants. Particulars: background statement; cited from earlier work.

On to `CP(=O)(O)CC[C@@H](N)C(=O)O` [D-glufosinate], for which the “inhibition of glutamine synthetase (GS)” value in data set [1] is recorded as “not a GS inhibitor”. Moreover, the herbicidal activity result in data set [2] was “not herbicidally active”.
